Where a name gives a salt, the structure may show the parent alone.
Compound	melting point
N=C(CC1CC1)Nc1ccc2oc(-c3ccc(-n4ccnc4)cc3)c(O)c(=O)c2c1 (as salt: hydrochloride) (hydrate or solvate) [Example 6, 2-[(4-imidazol-1-yl)-phenyl]-3-hydroxy-6-[(1-iminoethyl-2-cyclopropyl)amino]-4H-1-benzopyran-4-one dihydrochloride monohydrate]	249.1 to 251.1 °C
COc1ccc(-c2oc3ccc(NC(C)=N)cc3c(=O)c2O)cc1 (as salt: hydrochloride) (hydrate or solvate) [Example 12, 2-(4-methoxyphenyl)-3-hydroxy-6-[(1-iminoethyl)amino]-4H-1-benzopyran-4-one hydrochloride monohydrate]	260.1 to 261.1 °C
CC(=N)Nc1ccc2oc(-c3ccccc3)cc(=O)c2c1 (as salt: hydrochloride) [Example 1, 2-phenyl-6-[(1-iminoethyl)amino]-4H-1-benzopyran-4-one hydrochloride]	278.2 to 278.8 °C
CC(=N)Nc1ccc2oc(-c3ccc4c(c3)OCO4)cc(=O)c2c1 (as salt: hydrochloride) [Example 4, 2-(benzo[1,3]dioxol-5-yl)-6-[(1-iminoethyl)amino]-4H-1-benzopyran-4-one hydrochloride]	272.7 to 273.3 °C
CC(=N)Nc1ccc2oc(-c3ccc(-n4ccnc4)cc3)c(O)c(=O)c2c1 (as salt: hydrochloride) [Example 5, 2-[(4-imidazol-1-yl)-phenyl]-3-hydroxy-6-[(1-iminoethyl)amino]-4H-1-benzopyran-4-one hydrochloride]	311.7 to 312.1 °C
CC(=N)Nc1ccc2oc(-c3cccc(-n4ccnc4)c3)c(O)c(=O)c2c1 (as salt: hydrochloride) [Example 8, 2-[(3-(imidazol-1-yl)-phenyl]-3-hydroxy-6-[(1-iminoethyl)amino]-4H-1-benzopyran-4-one dihydrochloride]	281 to 281.5 °C
N=C(CC1CC1)Nc1ccc2oc(-c3ccc(O)cc3)c(O)c(=O)c2c1 (as salt: hydrochloride) [Example 11, 2-(4-hydroxyphenyl-3-hydroxy-6-[(1-iminoethyl-2-cyclopropyl)amino]-4H-1-benzopyran-4-one hydrochloride]	281 to 281.5 °C
CC(=N)Nc1ccc2oc(-c3ccc4c(c3)CCO4)c(O)c(=O)c2c1 (as salt: hydrochloride) [Example 15, 2-(dihydrobenzofuran-5-yl)-3-hydroxy-6-[(1-iminoethyl)amino]-4H-1-benzopyran-4-one hydrochloride]	291 to 292 °C
CC(=N)Nc1ccc2oc(-c3ccc4c(c3)OCO4)c(O)c(=O)c2c1 (as salt: hydrochloride) [Example 16, 2-(benzo[1,3]dioxol-5-yl)-3-hydroxy-6-[(1-iminoethyl)amino]-4H-1-benzopyran-4-one hydrochloride]	262.3 to 262.9 °C
COCCC(=N)Nc1ccc2oc(-c3ccc4c(c3)OCO4)c(O)c(=O)c2c1 (as salt: hydrochloride) [Example 19, 2-(benzo[1,3]dioxol-5-yl)-3-hydroxy-6-[(1-iminopropyl-3-methoxy)amino]-4H-1-benzopyran-4-one hydrochloride]	188.5 to 190 °C
CC(=N)Nc1ccc2oc(-c3ccc(O)nc3)c(O)c(=O)c2c1 (as salt: hydrochloride) [Example 21, 2-(6-hydroxypyridin-3-yl)-3-hydroxy-6-[(1-iminoethyl)amino]-4H-1-benzopyran-4-one hydrochloride]	284.5 to 286 °C

From US8372866B2, “2-aryl and 2-heteroaryl 4H-1-benzopyran-4-one-6-amidino derivatives, new pharmacological agents for the treatment of arthritis, cancer and related pain” (Rottapharm S.p.A., priority 2008, dated 2013)
